Entries after “also recorded” stand apart in the source; their conditions may differ. Marks after values point to notes of the source that are not given here.
Columns and labels:
[1] = system: rat isolated hepatocytes; experiment: Intracellular ROS, DCF fluorescence, flow cytometer; assay type: cell-based
Method: Isolated hepatocytes were seeded at 2 […]10^9 cells/L; after 4 h, the culture medium was replaced and cells were incubated for 48 h with 0.01-0.1% LE. Rotenone, S nitroso-N-acetyl-penicillamine (SNAP), buthionine sulfoximine (BSO), anti oxidants, or TNF-α were added to the culture medium in specific experiments. At the end of the experiment, the medium was collected and the cells were harvested for further assays.
Cell membrane integrity (15), TG accumulation (22), and intracellular ROS levels (23, 24) were detected by flow cytometer (FACScalibur BD). Hepatocytes were stained with 2 mg/L DNA-interchelating dye propidium iodide, which is excluded by viable cells; with 1 mg/L Nile red, which accumulates in intracellular lipid droplets; or with […] dichlorodihydrofluorescein diacetate (H2DCF-DA), a probe that has high reactivity to hydrogen peroxide, lipid hydroperoxide, and hydroxyl radicals and low reactivity to superoxide anions (23,24). Fluorescence settings were as follows: excitation at 488 nm and emission at 575 nm for propidium iodide and Nile red and 488 nm and recorded at 530 nm for H2DCF-DA. Data were collected from 10,000 cells.

[2] = system: J774.2 macrophages; experiment: Cell viability by propidium iodide exclusion (membrane integrity), flow cytometry; assay type: cell-based, Murine; conditions: for protection against TG-induced lipotoxicity (rate of cell death): AA 0.5 mM, resv 0.2 mM, querc 0.2 mM, lyc 10 AM, carot 10 AM, toc 0.2 mM, LA 0.25 mM, Se 1 AM (FIG. 8A)
Method: Murine J774.2 macrophages were cultured in RPMI medium enriched with 10% fetal calf serum, 1% glutamine, and 1% penicillin-streptomycin. […] Prior to experimental procedures, macrophages were seeded on 6-well plates at a concentration of 50,000 cells/ml.
The physiological range of TG in plasma is up to 1.5 mg/ml. […] Other agents, such as antioxidants or cycloheximide (CH), were added as specified in the relevant figure legends.
Cell membrane integrity was detected as previously described. Briefly, cells were stained with 2 Ag/ml propidium iodide (PI) and measured by flow cytometry, (FACS Calibur, Becton Dickinson, Calif.) at the following fluorescence setting: excitation at 488 nm and emission at 575 nm. Data were collected from 10,000 cells.

[3] = system: J774.2 macrophages; experiment: Intracellular ROS, H2DCF-DA fluorescent probe, FACS; assay type: cell-based, Murine; conditions: for ROS production in TG-treated cells: 0.1% LE 24 h, rotenone 40 AM added 5 min before probe, FCCP 15 min (FIG. 2B)
Method: Murine J774.2 macrophages were cultured in RPMI medium enriched with 10% fetal calf serum, 1% glutamine, and 1% penicillin-streptomycin. Cells were maintained in an incubator with temperature (378C) and CO2 (5%) control. Prior to experimental procedures, macrophages were seeded on 6-well plates at a concentration of 50,000 cells/ml.
LE was added to the cell culture at a concentration of 0.1% (w/v) TG (1 mg lipids/ml). The physiological range of TG in plasma is up to 1.5 mg/ml. The cells were incubated with the LE for 12, 24, or 48 h, and then washed twice with phosphate-buffered saline (PBS), and intracellular ROS and cell viability were measured. Other agents, such as antioxidants or cycloheximide (CH), were added as specified in the relevant figure legends.
Intracellular ROS were detected using a H2DCF-DA fluorescent probe. The cells were incubated with 25 AMH2DCF-DA for 30 min at room temperature. The fluorescence was measured in a FACS, with excitation at 488 nm and emission at 530 nm. Data were collected from 10,000 cells.

[4] = system: rat isolated hepatocytes; experiment: Nitrite in culture media (Griess reaction); assay type: cell-based; conditions: for effect on LE inhibition of nitrite levels: 0.1% LE, NAC 3 mmol/L, ascorbate 3 mmol/L, resveratrol 600 μmol/L
Method: Rotenone, S nitroso-N-acetyl-penicillamine (SNAP), buthionine sulfoximine (BSO), anti oxidants, or TNF-α were added to the culture medium in specific experiments. At the end of the experiment, the medium was collected and the cells were harvested for further assays.
Nitrite in culture media was measured by the Griess reaction (21). The values obtained were compared with standards of sodium nitrite dissolved in the cell culture media.

[5] = system: iNOS; experiment: iNOS mRNA level by RT-PCR; assay type: cell-based, rat; conditions: 0.1% LE, NAC 3 mmol/L, 48 h
Method: (§1) Total RNA was prepared using TriReagent. Analyses of mRNA levels of iNOS, eNOS, and gylceraldehyde-3-phosphate dehydrogenase (GAPDH) were performed using RT-PCR. The synthesis of cDNA was carried out using a Reverse-it (ABgene) first-strand synthesis kit. The reaction was conducted at 40-55° C. for 50 min. Finally, the reaction was terminated by incubation at 70° C. for 15 min. PCR amplification was performed in the Biometra T personal cycler instrument (Biometra). Cycles were performed at 94° C. for 30 s followed by 57° C. for 30 s and 72° C. for 30 s. cDNA was incubating with ReddyMix and gene-specific PCR primers, designed using Primer 3 software (Whitehead Institute for Biomedical Research).
(§2) The primers were synthesized by MBC: eNOS, forward primer, 5′-[…]-3′, and reverse primer, 5′-[…]-3′; INOS, forward primer, 5′[…]-3′, and reverse primer, 5′-[…]-3′. As a loading control, RNA was hybridized with a probe of the housekeeping gene, GAPDH, forward primer, 5′-[…]-3′, and reverse primer, 5′-[…]-3′.
(§3) PCR products were electrophoresed on […] gel containing 5 µL ethidium bromide, and the gel image was quantified using Doc-it gel image analysis program (UVP). The number of cycles for all the genes was selected within the linear part of a standard curve.

[6] = system: eNOS; experiment: eNOS mRNA level by RT-PCR; assay type: cell-based, rat; conditions: 0.1% LE, NAC 3 mmol/L, 48 h
Method: as §1, §2, §3

[7] = system: iNOS; experiment: iNOS protein expression, Western blot; assay type: cell-based, rat; conditions: 0.1% LE, NAC 3 mmol/L, 48 h
Method: (§4) Cells were scraped and lysed in 750 μΛ of lysis buffer (20 mmol/L Tris, pH 7.8; 0.1% Nonidet P-40; 100 mmol/L NaCl; 50 mmol/L NaF; 10% glycerol, 1 mmol/L sodium orthovanadate). Lysates were centrifuged at 8500×g for 10 min. The supernatant was collected and used for the analysis of eNOS and iNOS.
(§5) Protein concentration was determined by the Bradford method (20) using bovine serum albumin as a standard. Samples were boiled for 5 min with SDS sample buffer; 60 μg of protein per sample was loaded onto a 10% SDS-polyacrylamide gel. Electroblots were blocked in Tris buffer NaCl-Tween (TBST) containing 5% skim milk powder at room temperature. Western blot analysis with a specific antibody against iNOS (Biomol), eNOS, p65, and p-c-Jun antibodies (Santa Cruz Biotechnology) was carried out. The antibodies were diluted in TBST buffer+5% skim milk and left overnight at 4° C. After a TBST washing procedure, the blots were incubated with horseradish-peroxidase labeled anti-rabbit antibody (Pierce) for 1 h at room temperature. The immune reaction was detected by enhanced chemiluminescence. Bands were quantified by scanning densitometry and expressed as arbitrary units.

[8] = system: eNOS; experiment: eNOS protein expression, Western blot; assay type: cell-based, rat; conditions: 0.1% LE, NAC 3 mmol/L, 48 h, data not shown
Method: as §4, §5

[9] = system: rat isolated hepatocytes; experiment: Reduced glutathione (GSH) by HPLC; assay type: cell-based
Method: GSH was measured using HPLC (15). […] Detection was made by an electrochemical detector. The results were adjusted to protein levels of the samples.

[10] = system: caspase-3; experiment: Caspase-3 (DEVDase) activity, Ac-DEVD-AMC substrate; assay type: cell-based, Murine; conditions: pretreatment for 24 h with CH (FIG. 6)
Method: For analysis of caspase activity, cells were incubated for 2 h in ice-cold PBS containing 0.5% Triton X-100 and 5 mM dithiothreitol (DTT). The suspension of permeabilized cells was agitated slightly and centrifuged at 14,000 g. The clear supernatant was tested for caspase-3 activity as previously described, using the caspase-3 substrate Ac-DEVD-AMC (Calbiochem, Darmstadt, Germany). Incubation was conducted in 200 Al of reaction mixture containing approximatelyl mg sample protein, in the dark, at 308 C for 4 h (linear phase of the reaction). Caspase-3 activity was expressed as arbitrary fluorescence units (AU) per mg. protein.

[11] = with or without 0.1% LE and BSO, 48 h (Table 6)
[12] = with or without 0.1% LE and rotenone, 48 h (Table 5)

CC(=O)N[C@H](C(=O)O)C(C)(C)SN=O [SNAP, S-nitroso-N-acetyl-penicillamine]
effect on ROS levels ([1]; SNAP in culture medium 48 h, presence or absence of LE): had no effect on ROS levels
ROS (DCF fluorescence) ([1]; with or without 0.1% LE and SNAP, 48 h (Table 4)): SNAP 133 AU

O=C(O)CCCCC1CCSS1 (racemic) [racemic lipoic acid, lipoic acid]
protection against TG-induced lipotoxicity (rate of cell death) ([2]; 0.1% LE): did not have any protective effect or even enhanced the rate of cell death

CC(=O)N[C@@H](CS)C(=O)O [NAC, N-acetyl-L-cysteine]
protection against TG-induced cell death ([2]; 0.1% LE, NAC 0.5 mM (FIG. 7B)): protected the cells against TG-induced cell death
TG induced ROS production ([3]; 0.1% LE, NAC 0.5 mM (FIG. 7A)): suppressed
effect on LE inhibition of nitrite levels [4]: increased nitrite levels compared with controls; also recorded: Inhibition of nitrite production was abolished
effect on LE-induced reduction of iNOS mRNA transcription [5]: attenuate the LE-induced reduction
effect on LE-induced reduction of eNOS mRNA transcription [6]: attenuate the LE-induced reduction
effect on LE-induced reduction of iNOS protein levels [7]: attenuate the LE-induced reduction
effect on LE-induced reduction of eNOS protein levels [8]: attenuate the LE-induced reduction

O=c1c(O)c(-c2ccc(O)c(O)c2)oc2cc(O)cc(O)c12 [quercetin]
protection against TG-induced lipotoxicity (rate of cell death) ([2]; 0.1% LE): did not have any protective effect or even enhanced the rate of cell death

CCCCS(=N)(=O)CCC(N)C(=O)O (stereo not drawn) [BSO, buthionine sulfoximine]
nitrite levels ([4]; cells treated with BSO): decreased
Nitrite [4, 11]: 2.3 ± 0.3^c μmol/106 cells
GSH ([9]; cells treated with BSO): decreased
GSH [9, 11]: 2.2 ± 0.4 nmol/mg protein

TNF-α
Nitrite ([4]; TNF-α (100 mU) 3 h, with or without 48 h preincubation with 0.1% LE): 2.1 ± 0.1 μmol/106 cells
Nitrite ([4]; TNF-α (100 mU) 6 h, with or without 48 h preincubation with 0.1% LE): 2.1 ± 0.2 μmol/106 cells
Nitrite ([4]; TNF-α (100 mU) 9 h, with or without 48 h preincubation with 0.1% LE): 4.3 ± 0.2 μmol/106 cells
Nitrite ([4]; TNF-α (100 mU) 12 h, with or without 48 h preincubation with 0.1% LE): 6.5 ± 0.2 μmol/106 cells

N#CC(C#N)=NNc1ccc(OC(F)(F)F)cc1 [FCCP]
ROS production in TG-treated cells [3]: decreased cellular ROS production but not as effectively as rotenone

CC1=C(/C=C/C(C)=C/C=C/C(C)=C/C=C/C=C(C)/C=C/C=C(C)/C=C/C2=C(C)CCCC2(C)C)C(C)(C)CCC1 [h-carotene]
protection against TG-induced lipotoxicity (rate of cell death) ([2]; 0.1% LE): did not have any protective effect or even enhanced the rate of cell death

Cc1c(C)c2c(c(C)c1O)CC[C@@](C)(CCC[C@H](C)CCC[C@H](C)CCCC(C)C)O2 [atocopherol, a-tocopherol]
protection against TG-induced lipotoxicity (rate of cell death) ([2]; 0.1% LE): did not have any protective effect or even enhanced the rate of cell death

C[C@@H]1C[C@@H]([C@H](O)CC2CC(=O)NC(=O)C2)C(=O)[C@@H](C)C1 [CH, cycloheximide]
effect of protein-synthesis inhibition on TG cell-death effect ([2]; CH 0.1 AM then TG, 48 h (FIG. 6B)): does not prevent the cell-death effect of TG
ROS production, CH treatment alone ([3]; CH 0.1 AM (FIG. 6)): decreased ROS production
caspase-3 activity [10]: increased caspase-3 activity

C=C(C)[C@H]1Cc2c(ccc3c2O[C@@H]2COc4cc(OC)c(OC)cc4[C@@H]2C3=O)O1 [rotenone]
ROS production in TG-treated cells [3]: significantly decreased ROS production
intracellular ROS levels ([1]; incubation with rotenone): increased intracellular ROS levels
ROS (DCF fluorescence) [1, 12]: 530 ± 44^a AU
Nitrite [4, 12]: 2.0 ± 0.2^c μmol/106 cells

CC(C)=CCC/C(C)=C/C=C/C(C)=C/C=C/C(C)=C/C=C/C=C(C)/C=C/C=C(C)/C=C/C=C(\C)CCC=C(C)C [lycopene]
protection against TG-induced lipotoxicity (rate of cell death) ([2]; 0.1% LE): did not have any protective effect or even enhanced the rate of cell death

Oc1ccc(C=Cc2cc(O)cc(O)c2)cc1 [resveratrol]
protection against TG-induced lipotoxicity (rate of cell death) ([2]; 0.1% LE): significantly decreased the rate of cell death
effect on LE inhibition of nitrite levels [4]: partially prevented the reduction in nitrite synthesis

CC(C)(C)OO [TBH, tert-butyl hydroperoxide]
cell viability after 48 h of exposure ([2]; TBH 12 AM or LE 0.1%, 48 h (FIG. 5)): No loss in viability

Source: US20080015251A1, “Means and method for treating lipotoxicity and other metabolically related phenomena” (Yissum Research Development Co., of The Hebrew University …, priority 2006, published 2008)
